Patent US8124624B2, “Substituted sulfonamide compounds” (Gruenenthal GmbH, priority 2008, dated 2012)

Target: T1, B1R of the rat (Rattus norvegicus, UniProt P97583)
T1 construct: expressed in transfected cells; host or cells: CHO K1 cells (rB1R cells)
T1 sequence (P97583 1-337): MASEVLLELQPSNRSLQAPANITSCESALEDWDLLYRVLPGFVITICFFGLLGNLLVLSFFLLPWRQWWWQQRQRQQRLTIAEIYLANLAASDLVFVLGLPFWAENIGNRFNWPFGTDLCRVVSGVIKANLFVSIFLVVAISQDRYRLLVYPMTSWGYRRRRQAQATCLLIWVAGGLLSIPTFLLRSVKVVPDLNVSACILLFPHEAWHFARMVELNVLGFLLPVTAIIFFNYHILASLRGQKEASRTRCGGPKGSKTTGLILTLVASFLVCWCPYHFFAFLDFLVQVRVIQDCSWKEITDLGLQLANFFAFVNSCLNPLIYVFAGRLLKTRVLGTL
Test: FLIPR Ca2+ influx assay, B1R antagonism, rat (rB1R CHO K1 cells)
Assay type: cell-based
Conditions: test substance 10 μM, CHO K1 cells stably transfected with rat B1R, agonist Des-Arg9-bradykinin at EC80, % inhibition compared with maximum achievable inhibition; for inhibition at 10 µM: read-out: B1R antagonism, rat [10 μM] % inhibition
Procedure: The agonistic or antagonistic action of substances can be quantified on the bradykinin receptor 1 (B1R) of the species human and rat using ectopically expressing cell lines (CHO K1 cells) and with the aid of a Ca^2+-sensitive dye (Fluo-4) using a fluorescent imaging plate reader (FLIPR). The indication in % activation is based on the Ca^2+ signal after addition of Lys-Des-Arg^9-bradykinin (0.5 nM) or Des-Arg^9-bradykinin (100 nM). Antagonists lead to suppression of the Ca^2+ influx after the addition of the agonist. % Inhibition compared with the maximum achievable inhibition is indicated.
The agonistic or antagonistic action of substances can be determined on the bradykinin receptor 1 (B1R) of the species human and rat using the following assay. According to this assay, the Ca^2+ influx through the channel is quantified with the aid of a Ca^2+-sensitive dye (Fluo-4 type, Molecular Probes Europe BV, Leiden, Netherlands) using a Fluorescent Imaging Plate Reader (FLIPR, Molecular Devices, Sunnyvale, USA).
Chinese hamster ovary cells (CHO K1 cells) which have been stably transfected with the human B1R gene (hB1R cells) or with the B1R gene of the rat (rB1R cells) are used. For functional studies, the cells are plated out on black 96-well plates having a clear base (BD Biosciences, Heidelberg, Germany or Greiner, Frickenhausen, Germany) in a density of 20,000-35,000 cells/well. The cells are incubated overnight at 37° C. and with 5% CO2 in culture medium (hB1R cells: Nutrient Mixture Ham's F12, Gibco Invitrogen GmbH, Karlsruhe, Germany or DMEM, Sigma-Aldrich, Taufkirchen, Germany; rB1R cells: D-MEM/F12, Gibco Invitrogen GmbH, Karlsruhe, Germany), with 10 vol. % FBS (fetal bovine serum, Gibco Invitrogen GmbH, Karlsruhe, Germany or PAN Biotech GmbH, Aidenbach, Germany).
On the following day, the cells are loaded for 60 minutes at 37° C. with 2.13 μM Fluo-4 (Molecular Probes Europe BV, Leiden, Netherlands) in HBSS buffer (Hank's buffered saline solution, Gibco Invitrogen GmbH, Karlsruhe, Germany) […] (Sigma-Aldrich, Taufkirchen, Germany) and 10 mM HEPES (Sigma-Aldrich, Taufkirchen, Germany). The plates are then washed twice with HBSS buffer, and HBSS buffer additionally containing 0.1% BSA (bovine serum albumin; Sigma-Aldrich, Taufkirchen, Germany), 5.6 mM glucose and 0.05% gelatin (Merck KGaA, Darmstadt, Germany) is added to the plates. After incubation for a further 20 minutes at room temperature, the plates are inserted into the FLIPR for Ca^2+ measurement.
Alternatively, washing is carried out with buffer A (15 mM HEPES, 80 mM NaCl, 5 mM KCl, 1.2 mM CaCl2, 0.7 mM MgSO4, 2 g/l glucose, 2.5 mM probenecid) followed by loading with buffer A with added 2.5 μM Fluo-4 and 0.025% Pluronic F127 (Sigma-Aldrich, Taufkirchen, Germany). The cells are then washed twice with buffer A and incubated for 30 minutes at room temperature with buffer A additionally containing 0.05% BSA and 0.05% gelatin and are then inserted into the FLIPR for Ca^2+ measurement.
The Ca^2+-dependent fluorescence is measured before and after the addition of substances (λex=488 nm, λem=540 nm). Quantification is carried out by measuring the highest fluorescence intensity (FC, fluorescence counts) over time.
The FLIPR protocol consists of two substance additions. Test substances (10 μM) are first pipetted onto the cells and the Ca^2+ influx is compared with the control (hB1R: Lys-Des-Arg^9-bradykinin >=50 nM; rB1R: Des-Arg^9-bradykinin 10 μM). This gives the activation in %, based on the Ca^2+ signal after addition of Lys-Des-Arg^9-bradykinin (>=50 nM) or Des-Arg^9-bradykinin (10 μM). After 10-20 minutes' incubation, Lys-Des-Arg^9-bradykinin (hB1R) or Des-Arg^9-bradykinin (rB1R) is applied in the concentration of the EC80, and the influx of Ca^2+ is likewise determined. Antagonists lead to suppression of the Ca^2+ influx. The % inhibition compared with the maximum achievable inhibition is calculated. […]

Compound	inhibition at 10 µM	B1R antagonism, rat [10 μM] % inhibition
COc1cc(C)c(S(=O)(=O)N2CCCCC2COCC(=O)N2CCC(CCCN3CCCC3)(c3ccncc3)CC2)c(C)c1 (centres unmarked) [Example 28, 2-[[1-[(4-Methoxy-2,6-dimethyl-phenyl)sulfonyl]-piperidin-2-yl]-methoxy]-1-[4-pyridin-4-yl-4-(3-pyrrolidin-1-yl-propyl)-piperidin-1-yl]-ethanone]	97%	
COc1cc(C)c(S(=O)(=O)N(C)CCOCC(=O)N2CCC(CCCN3CCCC3)(c3ccncc3)CC2)c(C)c1 [Example 30, 4-Methoxy-N,2,6-trimethyl-N-[2-[2-oxo-2-[4-pyridin-4-yl-4-(3-pyrrolidin-1-yl-propyl)-piperidin-1-yl]-ethoxy]-ethyl]-benzenesulfonic acid amide]	100%	
COc1cc(C)c(S(=O)(=O)N(C)CCOCC(=O)N2CCC(CCCN3CCCC3)(c3ccncc3)CC2)c(C)c1C [Example 32, 4-Methoxy-N,2,3,6-tetramethyl-N-[2-[2-oxo-2-[4-pyridin-4-yl-4-(3-pyrrolidin-1-yl-propyl)-piperidin-1-yl]-ethoxy]-ethyl]-benzenesulfonic acid amide]	100%	
COc1cc(C)c(S(=O)(=O)N(CCOCC(=O)N2CCC(CCCN3CCCC3)(c3ccncc3)CC2)Cc2ccccc2)c(C)c1 [Example 39, N-Benzyl-4-Methoxy-2,6-dimethyl-N-[2-[2-oxo-2-[4-pyridin-4-yl-4-(3-pyrrolidin-1-yl-propyl)-piperidin-1-yl]-ethoxy]-ethyl]-benzenesulfonic acid amide]	99%	
COc1cc(C)c(S(=O)(=O)N(CCOCC(=O)N2CCC(CCCN3CCCC3)(c3ccncc3)CC2)Cc2ccccc2)c(C)c1 [Example 40, N-Benzyl-4-Methoxy-2,6-dimethyl-N-[2-[2-oxo-2-[4-pyridin-4-yl-4-(3-pyrrolidin-1-yl-propyl)-piperidin-1-yl]-ethoxy]-ethyl]-benzenesulfonic acid amide]		100%
O=C(COCC1CCCCN1S(=O)(=O)c1ccccc1C(F)(F)F)N1CCC(CCCN2CCCC2)(c2ccncc2)CC1 (centres unmarked) [Example 43, 1-[4-Pyridin-4-yl-4-(3-pyrrolidin-1-yl-propyl)-piperidin-1-yl]-2-[[1-[[2-(trifluoromethyl)-phenyl]sulfonyl]-piperidin-2-yl]-methoxy]-ethanone]	101%	
O=C(COCC1CCCCN1S(=O)(=O)c1ccccc1C(F)(F)F)N1CCC(CCCN2CCCC2)(c2ccncc2)CC1 (centres unmarked) [Example 44, 1-[4-Pyridin-4-yl-4-(3-pyrrolidin-1-yl-propyl)-piperidin-1-yl]-2-[[1-[[2-(trifluoromethyl)-phenyl]sulfonyl]-piperidin-2-yl]-methoxy]-ethanone]		100%
COc1cc(C)c(S(=O)(=O)N2CCCCC2CCOCC(=O)N2CCC(CCCN3CCCC3)(c3cccnc3)CC2)c(C)c1 (centres unmarked) [Example 45, 2-[2-[1-[(4-Methoxy-2,6-dimethyl-phenyl)sulfonyl]-piperidin-2-yl]-ethoxy]-1-[4-pyridin-3-yl-4-(3-pyrrolidin-1-yl-propyl)-piperidin-1-yl]-ethanone]	100%	
COc1cc(C)c(S(=O)(=O)N2CCCCC2CCOCC(=O)N2CCC(CCCN3CCCC3)(c3cccnc3)CC2)c(C)c1 (centres unmarked) [Example 46, 2-[2-[1-[(4-Methoxy-2,6-dimethyl-phenyl)sulfonyl]-piperidin-2-yl]-ethoxy]-1-[4-pyridin-3-yl-4-(3-pyrrolidin-1-yl-propyl)-piperidin-1-yl]-ethanone]		101%
CN(CCCC(=O)N1CCC(CCCN2CCCC2)(c2cccnc2)CC1)S(=O)(=O)c1cccc(C(F)(F)F)c1 [Example 47, N-Methyl-N-[4-Oxo-4-[4-pyridin-3-yl-4-(3-pyrrolidin-1-yl-propyl)-piperidin-1-yl]-butyl]-3-(trifluoromethyl)-benzenesulfonic acid amide]	53%	
COc1cc(C)c(S(=O)(=O)N(CCOCC(=O)N2CCC(CCCN3CCCC3)(c3ccncc3)CC2)c2ccccc2)c(C)c1 [Example 50, 4-Methoxy-2,6-Dimethyl-N-[2-[2-oxo-2-[4-pyridin-4-yl-4-(3-pyrrolidin-1-yl-propyl)-piperidin-1-yl]-ethoxy]-ethyl]-N-phenyl-benzenesulfonic acid amide]	100%	
O=C(COCC1CCc2ccccc2N1S(=O)(=O)c1ccc2ccccc2c1)N1CCC(CCCN2CCCC2)(c2cccnc2)CC1 (centres unmarked) [Example 51, 2-[[1-(Naphthalen-2-ylsulfonyl)-1,2,3,4-tetrahydro-quinolin-2-yl]-methoxy]-1-[4-pyridin-3-yl-4-(3-pyrrolidin-1-yl-propyl)-piperidin-1-yl]-ethanone]	80%	
O=C(COCC1CCc2ccccc2N1S(=O)(=O)c1ccc2ccccc2c1)N1CCC(CCCN2CCCC2)(c2cccnc2)CC1 (centres unmarked) [Example 52, 2-[[1-(Naphthalen-2-ylsulfonyl)-1,2,3,4-tetrahydro-quinolin-2-yl]-methoxy]-1-[4-pyridin-3-yl-4-(3-pyrrolidin-1-yl-propyl)-piperidin-1-yl]-ethanone]		83%
COc1cc(C)c(S(=O)(=O)N2c3ccccc3CCC2COCC(=O)N2CCC(CCCN3CCCC3)(c3ccncc3)CC2)c(C)c1 (centres unmarked) [Example 55, 2-[[1-[(4-Methoxy-2,6-dimethyl-phenyl)sulfonyl]-1,2,3,4-tetrahydro-quinolin-2-yl]-methoxy]-1-[4-pyridin-4-yl-4-(3-pyrrolidin-1-yl-propyl)-piperidin-1-yl]-ethanone]	98%	
Cc1cccc(Cl)c1S(=O)(=O)N1CCCCC1CCCC(=O)N1CCC(CCCN2CCCC2)(c2ccncc2)CC1 (centres unmarked) [Example 56, 4-[1-[(2-Chloro-6-methyl-phenyl)sulfonyl]-piperidin-2-yl]-1-[4-pyridin-4-yl-4-(3-pyrrolidin-1-yl-propyl)-piperidin-1-yl]-butan-1-one]	97%	
O=C(CCCC1CCCCN1S(=O)(=O)c1ccccc1C(F)(F)F)N1CCC(CCCN2CCCC2)(c2cccnc2)CC1 (centres unmarked) [Example 57, 1-[4-Pyridin-3-yl-4-(3-pyrrolidin-1-yl-propyl)-piperidin-1-yl]-4-[1-[[2-(trifluoromethyl)-phenyl]sulfonyl]-piperidin-2-yl]-butan-1-one]	70%	
O=C(CCCC1CCCCN1S(=O)(=O)c1ccccc1C(F)(F)F)N1CCC(CCCN2CCCC2)(c2ccncc2)CC1 (centres unmarked) [Example 58, 1-[4-Pyridin-4-yl-4-(3-pyrrolidin-1-yl-propyl)-piperidin-1-yl]-4-[1-[[2-(trifluoromethyl)-phenyl]sulfonyl]-piperidin-2-yl]-butan-1-one]	99%	
